28 compounds from patent US9174952B2, “Substituted 3-thiazoloamino-propionic acid derivatives and their use as pharmaceuticals” (SANOFI, priority 2011, dated 2015) can be followed below.

The experiment has as its target T1, Recombinant human cathepsin A (Homo sapiens, UniProt P10619).
T1 construct: Recombinant human cathepsin A (residues 29-480, with a C-terminal 10-His tag); 10-His (C); purchased R&D Systems 1049-SE
T1 sequence (P10619 29-326 limits assumed): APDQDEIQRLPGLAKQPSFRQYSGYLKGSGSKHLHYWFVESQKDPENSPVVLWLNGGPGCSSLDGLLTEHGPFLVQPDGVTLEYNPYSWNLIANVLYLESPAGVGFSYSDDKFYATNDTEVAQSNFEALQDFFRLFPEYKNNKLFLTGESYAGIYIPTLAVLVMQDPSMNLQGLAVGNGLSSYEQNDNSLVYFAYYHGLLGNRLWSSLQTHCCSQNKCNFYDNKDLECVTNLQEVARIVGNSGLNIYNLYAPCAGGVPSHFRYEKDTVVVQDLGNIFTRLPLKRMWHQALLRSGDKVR
T1 sequence (P10619 327-480 limits assumed): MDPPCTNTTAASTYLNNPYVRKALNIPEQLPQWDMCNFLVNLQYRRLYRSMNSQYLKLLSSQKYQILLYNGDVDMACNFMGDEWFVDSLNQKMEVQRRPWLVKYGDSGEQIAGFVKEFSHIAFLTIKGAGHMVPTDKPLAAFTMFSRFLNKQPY
As to the kind of experiment: Cathepsin A inhibitory activity. Format: biochemical. As to conditions: activated recombinant human cathepsin A 833 ng/ml, Bodipy FL-labeled bradykinin substrate 2 μM, pH 5.5, room temperature. As to the method:
a) Cathepsin A Inhibitory Activity
Recombinant human cathepsin A (residues 29-480, with a C-terminal 10-His tag; R&D Systems, #1049-SE) was proteolytically activated with recombinant human cathepsin L (R&D Systems, #952-CY). Briefly, cathepsin A was incubated at 10 μg/ml with cathepsin L at 1 μg/ml in activation buffer (25 mM 2-(morpholin-4-yl)-ethanesulfonic acid (MES), pH 6.0, containing 5 mM dithiothreitol (DTT)) for 15 min at 37° C. Cathepsin L activity was then stopped by the addition of the cysteine protease inhibitor E-64 (N-(trans-epoxysuccinyl)-L-leucine-4-guanidinobutylamide; Sigma-Aldrich, # E3132; dissolved in activation buffer/DMSO) to a final concentration of 10 μM.
The activated cathepsin A was diluted in assay buffer (25 mM MES, pH 5.5, containing 5 mM DTT) and mixed with the test compound (dissolved in assay buffer containing (v/v) 3% DMSO) or, in the control experiments, with the vehicle in a multiple assay plate. After incubation for 15 min at room temperature, as substrate then bradykinin carrying an N-terminal ®Bodipy FL (4,4-difluoro-5,7-dimethyl-4-bora-3a,4a-diaza-s-indacene-3-propionyl) label (JPT Peptide Technologies GmbH; dissolved in assay buffer) was added to the mixture. The final concentration of cathepsin A was 833 ng/ml and the final concentration of labeled bradykinin 2 μM. After incubation for 15 min at room temperature the reaction was stopped by the addition of stop buffer (130 mM 2-(4-(2-hydroxy-ethyl)-piperazin-1-yl)-ethanesulfonic acid, pH 7.4, containing (v/v) 0.013% ®Triton X-100, 0.13% Coating Reagent 3 (Caliper Life Sciences), 6.5% DMSO and 20 μM ebelactone B (Sigma, # E0886)).
Uncleaved substrate and product were then separated by a microfluidic capillary electrophoresis on a LabChip® 3000 Drug Discovery System (12-Sipper-Chip; Caliper Life Sciences) and quantified by determination of the respective peak areas. Substrate turnover was calculated by dividing product peak area by the sum of substrate and product peak areas, and the enzyme activity and the inhibitory effect of the test compound thus quantified. From the percentage of inhibition of cathepsin A activity observed with the test compound at several concentrations, the inhibitory concentration IC50, i.e. the concentration which effects 50% inhibition of enzyme activity was, calculated.
As to `COc1ccc([C@H](CC(=O)O)NC(=O)c2csc(-c3ccccc3)n2)cc1` [Example 59, (S)-3-(4-Methoxy-phenyl)-3-[(2-phenyl-thiazole-4-carbonyl)-amino]-propionic acid], the IC50 (as a rule, the concentration that gives 50% inhibition) is 0.976 µM. In the case of `O=C(O)C[C@H](NC(=O)c1nc(-c2ccccc2)cs1)c1ccc(Cl)cc1` [Example 69, (S)-3-(4-Chloro-phenyl)-3-[(4-phenyl-thiazole-2-carbonyl)-amino]-propionic acid] it was 0.627 µM; in that of `COc1ccc([C@H](CC(=O)O)NC(=O)c2csc(-c3ccc(C(F)(F)F)cc3)n2)cc1` [Example 60, (S)-3-(4-Methoxy-phenyl)-3-{[2-(4-trifluoromethyl-phenyl)-thiazole-4-carbonyl]-amino}-propionic acid], 14.8 µM. For `O=C(O)C[C@H](NC(=O)c1csc(-c2cccc(Cl)c2)n1)c1ccccc1C(F)(F)F` [Example 93, (S)-3-{[2-(3-Chloro-phenyl)-thiazole-4-carbonyl]-amino}-3-(2-trifluoromethyl-phenyl)-propionic acid], the concentration for half-maximal inhibition (IC50) stood at 10.4 µM. In the case of `O=C(O)C[C@H](NC(=O)c1csc(-c2ccccc2F)n1)c1ccccc1F` [Example 36, (S)-3-(2-Fluoro-phenyl)-3-{[2-(2-fluoro-phenyl)-thiazole-4-carbonyl]-amino}-propionic acid] it was 0.659 µM; in that of `O=C(O)C[C@H](NC(=O)c1csc(-c2ccc(Cl)cc2)n1)c1cccc(Cl)c1` [Example 45, (S)-3-(3-Chloro-phenyl)-3-{[2-(4-chloro-phenyl)-thiazole-4-carbonyl]-amino}-propionic acid], 3.54 µM. `O=C(O)C[C@H](NC(=O)c1csc(-c2ccccc2Cl)n1)c1ccc(F)cc1` [Example 80, (S)-3-{[2-(2-Chloro-phenyl)-thiazole-4-carbonyl]-amino}-3-(4-fluoro-phenyl)-propionic acid]: the IC50 amounted to 0.148 µM. In the case of `O=C(NCC(C(=O)O)c1ccccc1)c1csc(-c2ccccc2Cl)n1` (stereo not shown) [Example 118, 3-{[2-(2-Chloro-phenyl)-thiazole-4-carbonyl]-amino}-2-phenyl-propionic acid] it was 6.04 µM; in that of `Cc1cc(C)n(-c2nc(C(=O)N[C@@H](CC(=O)O)c3ccccc3C)cs2)n1` [Example 6, (S)-3-{[2-(3,5-Dimethyl-pyrazol-1-yl)-thiazole-4-carbonyl]-amino}-3-o-tolyl-propionic acid], greater than 10 µM.

In the case of `Cc1ccccc1-c1nc(C(=O)N[C@@H](CC(=O)O)c2cccc(Cl)c2)cs1` [Example 39, (S)-3-(3-Chloro-phenyl)-3-[(2-o-tolyl-thiazole-4-carbonyl)-amino]-propionic acid], the IC50 turned out to be 0.807 µM.

As for `O=C(O)CC(NC(=O)c1csc(-c2ccccc2)n1)C1CCCCC1` (stereo not shown) [Example 129, 3-Cyclohexyl-3-[(2-phenyl-thiazole-4-carbonyl)-amino]-propionic acid], the IC50 amounted to 1.12 µM. On to `O=C(O)C[C@H](NC(=O)c1csc(-c2cccc(Cl)c2Cl)n1)c1ccccc1Cl` [Example 28, (S)-3-(2-Chloro-phenyl)-3-{[2-(2,3-dichloro-phenyl)-thiazole-4-carbonyl]-amino}-propionic acid], for which the IC50 worked out at 0.282 µM.

As for `COc1cccc([C@H](CC(=O)O)NC(=O)c2csc(-c3ccc(C(F)(F)F)cc3)n2)c1OC` [Example 20, (S)-3-(2,3-Dimethoxy-phenyl)-3-{[2-(4-trifluoromethyl-phenyl)-thiazole-4-carbonyl]-amino}-propionic acid], the IC50 was found to be 6.34 µM. As for `O=C(O)CC(Cc1ccccc1)NC(=O)c1csc(-c2cccc(Cl)c2Cl)n1` (stereo not shown) [Example 117, 3-{[2-(2,3-Dichloro-phenyl)-thiazole-4-carbonyl]-amino}-4-phenyl-butyric acid], the IC50 was 2.75 µM. `Cc1ccc(-c2nc(C(=O)N[C@@H](CC(=O)O)c3ccccc3C)cs2)cc1` [Example 10, (S)-3-o-Tolyl-3-[(2-p-tolyl-thiazole-4-carbonyl)-amino]-propionic acid]: the IC50 turned out to be 0.187 µM. In the case of `O=C(O)C[C@H](NC(=O)c1nc(-c2ccccc2)cs1)c1cccc(F)c1` [Example 55, (S)-3-(3-Fluoro-phenyl)-3-[(4-phenyl-thiazole-2-carbonyl)-amino]-propionic acid] it was 0.542 µM. In the case of `COc1cccc([C@H](CC(=O)O)NC(=O)c2csc(-c3ccccc3)n2)c1` [Example 52, (S)-3-(3-Methoxy-phenyl)-3-[(2-phenyl-thiazole-4-carbonyl)-amino]-propionic acid] it was 2.86 µM; in that of `COc1ccc([C@H](CC(=O)O)NC(=O)c2csc(-c3ccccc3F)n2)cc1` [Example 86, (S)-3-{[2-(2-Fluoro-phenyl)-thiazole-4-carbonyl]-amino}-3-(4-methoxy-phenyl)-propionic acid], 0.975 µM; in that of `O=C(O)C[C@H](NC(=O)c1csc(-c2ccccc2)n1)c1cccc(Cl)c1Cl` [Example 13, (S)-3-(2,3-Dichloro-phenyl)-3-[(2-phenyl-thiazole-4-carbonyl)-amino]-propionic acid], 0.176 µM. For the compound `O=C(O)C[C@H](NC(=O)c1csc(-c2ccccc2F)n1)c1cccc(F)c1` [Example 49, (S)-3-(3-Fluoro-phenyl)-3-{[2-(2-fluoro-phenyl)-thiazole-4-carbonyl]-amino}-propionic acid], the IC50 is 0.724 µM. In the case of `O=C(NCC(C(=O)O)c1ccccc1)c1csc(-c2cccc(Cl)c2Cl)n1` (stereo not shown) [Example 116, 3-{[2-(2,3-Dichloro-phenyl)-thiazole-4-carbonyl]-amino}-2-phenyl-propionic acid] it was 7.71 µM; in that of `O=C(O)C[C@H](NC(=O)c1nc(-c2ccccc2)cs1)c1ccc(Cl)cc1Cl` [Example 96, (S)-3-(2,4-Dichloro-phenyl)-3-[(4-phenyl-thiazole-2-carbonyl)-amino]-propionic acid], 0.254 µM; in that of `O=C(O)C[C@H](NC(=O)c1nc(-c2ccccc2)cs1)c1ccc(F)cc1` [Example 51, (S)-3-(4-Fluoro-phenyl)-3-[(4-phenyl-thiazole-2-carbonyl)-amino]-propionic acid], 0.457 µM.

Take `COc1cccc([C@H](CC(=O)O)NC(=O)c2csc(-c3ccccc3)n2)c1OC` [Example 18, (S)-3-(2,3-Dimethoxy-phenyl)-3-[(2-phenyl-thiazole-4-carbonyl)-amino]-propionic acid]: the IC50 came out at 0.498 µM. Consider `Cc1ccccc1-c1nc(C(=O)N[C@@H](CC(=O)O)c2ccccc2C)cs1` [Example 111, (S)-3-o-Tolyl-3-[(2-o-tolyl-thiazole-4-carbonyl)-amino]-propionic acid], for which the IC50 came to 0.106 µM. As to `Cc1ccccc1-c1nc(C(=O)NC(CC(=O)O)Cc2ccccc2)cs1` (stereo not shown) [Example 133, 4-Phenyl-3-[(2-o-tolyl-thiazole-4-carbonyl)-amino]-butyric acid], the IC50 is 3.37 µM.

On to `O=C(NCC(C(=O)O)c1ccccc1)c1csc(-c2cccc(Cl)c2)n1` (stereo not shown) [Example 123, 3-{[2-(3-Chloro-phenyl)-thiazole-4-carbonyl]-amino}-2-phenyl-propionic acid], for which the IC50 is greater than 10 µM. In the case of `O=C(O)CC(NC(=O)c1csc(-c2ccccc2Cl)n1)C1CCCCC1` (stereo not shown) [Example 119, 3-{[2-(2-Chloro-phenyl)-thiazole-4-carbonyl]-amino}-3-cyclohexyl-propionic acid] it was 0.68 µM.
